The text below walks through data of PubChem BioAssay (NCI).

Some test systems named below: EKVX NSCLC; MCF7 breast; A498 renal; SK-OV-3 ovarian; UACC-257 melanoma; HOP-62 NSCLC; NCI-H522 lung; SN12C renal; A549 NSCLC; SNB-75 CNS.
Holding throughout (assay): NCI-60 cell line screen, 48 h

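Grown in 96-well plates, cells were treated for 48 hours with each compound at five concentrations. Insufficient inhibition: endpoint recorded as highest concentration tested. GI50 = concentration required for 50% inhibition of growth. TGI denotes the concentration required for complete inhibition of growth.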

In the case of `O=C1CCCC2C3CC(CN12)C1CCCCN1C3` (stereo unspecified), the TGI in the test on EKVX NSCLC, in the test on MCF7 breast, with A498 renal, with SK-OV-3 ovarian, with UACC-257 melanoma and in the test with HOP-62 NSCLC was greater than 100 µM throughout. Moreover, the TGI in the test with NCI-H522 lung, in the test with SN12C renal and in the test with A549 NSCLC was greater than 100 µM throughout.
`C=CCSSCC=C`: the TGI with EKVX NSCLC, in the test with MCF7 breast, with A498 renal, in the test on SK-OV-3 ovarian, with UACC-257 melanoma and in the test on HOP-62 NSCLC was greater than 100 µM throughout. Further, the TGI is greater than 100 µM with SNB-75 CNS, greater than 100 µM in the test with NCI-H522 lung, greater than 86.9 µM with SN12C renal and greater than 100 µM in the test with A549 NSCLC.
`COc1c(OC/C=C(\C)CCC=C(C)C)ccc2ccc(=O)oc12`: the TGI in the test on EKVX NSCLC, in the test on MCF7 breast, in the test with A498 renal, with SK-OV-3 ovarian, in the test on UACC-257 melanoma and in the test with HOP-62 NSCLC was greater than 100 µM each time. Also, the TGI in the test with SNB-75 CNS, in the test with NCI-H522 lung, in the test on SN12C renal and with A549 NSCLC was greater than 100 µM throughout.
In the case of `O=C1OCc2cc3cc4c(cc3c(-c3ccc5c(c3)OCO5)c21)OCO4` (tested in a mixture with another compound), the TGI in the test with MCF7 breast is greater than 100 µM; in the test with A498 renal, greater than 100 µM; in the test with SK-OV-3 ovarian, 48.1 µM; in the test on UACC-257 melanoma, greater than 100 µM; in the test with HOP-62 NSCLC, 34.9 µM; in the test on SN12C renal, greater than 100 µM.
Consider `CN1CC(CNC(=O)OCc2ccccc2)CC2c3cccc4c3c(cn4C)CC21` (stereo unspecified), for which the GI50 is 5200 nM in the test on EKVX NSCLC; 1770 nM with MCF7 breast; 3470 nM in the test with A498 renal; 1420 nM with UACC-257 melanoma; 1520 nM in the test with HOP-62 NSCLC; 1900 nM with SNB-75 CNS. Further, the GI50 in the test on NCI-H522 lung is 1730 nM; in the test on SN12C renal it was 2860 nM; in the test on A549 NSCLC, 2220 nM. Besides, the TGI turned out to be 21.3 µM in the test with EKVX NSCLC; 3.29 µM with MCF7 breast; 16 µM with A498 renal; 2.81 µM in the test with UACC-257 melanoma; 2.98 µM in the test with HOP-62 NSCLC; 4.68 µM in the test on SNB-75 CNS. In addition, the TGI in the test on NCI-H522 lung stood at 3.33 µM; with SN12C renal, 11.3 µM; with A549 NSCLC, 5.24 µM.
Take `c1ccc(C[N+]23CN4CN(CN(C4)C2)C3)cc1`: the TGI in the test with EKVX NSCLC was greater than 100 µM; in the test on MCF7 breast it was 94.3 µM; in the test with A498 renal it was greater than 100 µM; in the test with SK-OV-3 ovarian, greater than 100 µM; with UACC-257 melanoma, greater than 100 µM; with HOP-62 NSCLC it was greater than 100 µM. The TGI was greater than 100 µM in the test on SNB-75 CNS, greater than 100 µM in the test with NCI-H522 lung, greater than 100 µM in the test with SN12C renal and 91.8 µM in the test with A549 NSCLC.
`O=C1OC2CC=CC1C2` (stereo unspecified): the TGI with EKVX NSCLC, in the test on MCF7 breast, in the test with A498 renal, with SK-OV-3 ovarian, with UACC-257 melanoma and with HOP-62 NSCLC was greater than 100 µM throughout. The TGI in the test with SNB-75 CNS, with NCI-H522 lung, in the test on SN12C renal and in the test on A549 NSCLC was greater than 100 µM each time.
Consider `COc1cc(/C=C/C(=O)CC(=O)/C=C/c2ccc(O)c(OC)c2)ccc1O`, for which the TGI was found to be […] in the test with EKVX NSCLC; 34.3 µM in the test on MCF7 breast; 33.1 µM in the test with A498 renal; 21 µM in the test on SK-OV-3 ovarian; 23.9 µM with UACC-257 melanoma; 19.1 µM with HOP-62 NSCLC. Moreover, the TGI in the test on SNB-75 CNS worked out at 18 µM; in the test with NCI-H522 lung, 16.7 µM; in the test on SN12C renal, 25.1 µM; in the test on A549 NSCLC it was 31.7 µM.
For `O=C(/C=C/c1ccccc1)N1CCCCC1`, the TGI in the test with EKVX NSCLC, in the test on MCF7 breast, in the test with A498 renal, in the test with SK-OV-3 ovarian, in the test with UACC-257 melanoma and in the test with HOP-62 NSCLC was greater than 100 µM throughout. Moreover, the TGI in the test with SNB-75 CNS is 89.2 µM; with NCI-H522 lung, greater than 100 µM; in the test on SN12C renal it was greater than 100 µM; in the test with A549 NSCLC, greater than 100 µM.
On to `Br/C(=N\Nc1nn[nH]n1)c1ccncc1`, for which the TGI in the test with EKVX NSCLC, in the test with MCF7 breast, with A498 renal, in the test on SK-OV-3 ovarian, in the test on UACC-257 melanoma and in the test on HOP-62 NSCLC was greater than 100 µM throughout. Also, the TGI in the test on SNB-75 CNS, with NCI-H522 lung, in the test with SN12C renal and in the test on A549 NSCLC was greater than 100 µM in each case.
Regarding `C=C1C(=O)OC2CC1CCC1(C)OC1CCC(C)=CCCC2(C)O` (stereo unspecified), the TGI stood at 13.9 µM in the test on EKVX NSCLC; 9.64 µM in the test on MCF7 breast; 3.52 µM in the test with A498 renal; 36.7 µM with SK-OV-3 ovarian; 13.9 µM with UACC-257 melanoma; 19.4 µM with HOP-62 NSCLC. For the same compound, the TGI in the test on SNB-75 CNS came out at 19.5 µM; with NCI-H522 lung, 3.69 µM; with SN12C renal, 11.6 µM; in the test with A549 NSCLC it was 26.9 µM.
On to `O=C(COc1ccc(Cl)c(Cl)c1)N(Cc1ccccc1)Cc1ccc[n+](Cc2ccc(Cl)cc2S(=O)(=O)F)c1`, for which the TGI with MCF7 breast, in the test on A498 renal, with SK-OV-3 ovarian, with UACC-257 melanoma, in the test with HOP-62 NSCLC and in the test on SNB-75 CNS was greater than 100 µM each time. Besides, the TGI with NCI-H522 lung, with SN12C renal and with A549 NSCLC was greater than 100 µM each time.
For the compound `Cc1cc(C)nc(SCCc2cccc[n+]2C)n1`, the TGI with EKVX NSCLC, in the test on MCF7 breast, in the test with A498 renal, in the test on SK-OV-3 ovarian, with UACC-257 melanoma and with HOP-62 NSCLC was greater than 100 µM throughout. In addition, the TGI in the test with SNB-75 CNS, with NCI-H522 lung, in the test on SN12C renal and in the test on A549 NSCLC was greater than 100 µM in each case.
`CCCC(=O)O.CCCC(=O)O.CCCC(=O)O.CCCC(=O)O.[Rh].[Rh]`: the GI50 is 168 nM in the test on EKVX NSCLC, 151 nM with A498 renal, 278 nM with SK-OV-3 ovarian and 423 nM with SNB-75 CNS. Also, the TGI in the test on EKVX NSCLC was 0.943 µM; in the test on A498 renal, 0.325 µM; with SK-OV-3 ovarian, 0.829 µM; in the test on SNB-75 CNS, 2.62 µM.
As to `CC(=O)NNC(=O)C1CCCCN1` (stereo unspecified), the TGI with EKVX NSCLC, in the test on MCF7 breast, in the test on A498 renal, in the test on SK-OV-3 ovarian, in the test on UACC-257 melanoma and in the test with HOP-62 NSCLC was greater than 100 µM each time. The TGI in the test with NCI-H522 lung, in the test on SN12C renal and with A549 NSCLC was greater than 100 µM each time.
Consider `O=C(Oc1ccc(Cl)cc1[N+](=O)[O-])c1ccccc1`, for which the TGI in the test with EKVX NSCLC, in the test on A498 renal, in the test on SK-OV-3 ovarian, with UACC-257 melanoma, with HOP-62 NSCLC and with SNB-75 CNS was greater than 100 µM throughout. In addition, the TGI with SN12C renal and in the test on A549 NSCLC was greater than 100 µM in each case.
Turning to `SC1CCCN(Cc2ccccc2)C1` (stereo unspecified), the TGI was greater than 100 µM in the test with EKVX NSCLC; 39.4 µM with MCF7 breast; greater than 100 µM in the test with A498 renal; greater than 100 µM with SK-OV-3 ovarian; greater than 100 µM in the test on UACC-257 melanoma; greater than 100 µM with HOP-62 NSCLC. Also, the TGI with SNB-75 CNS, in the test on NCI-H522 lung, in the test with SN12C renal and in the test with A549 NSCLC was greater than 100 µM each time.
Turning to `COc1ccc(OC)c(CC(C)N)c1` (stereo unspecified), the TGI with EKVX NSCLC, with A498 renal, with SK-OV-3 ovarian, in the test with UACC-257 melanoma, in the test on HOP-62 NSCLC and with SNB-75 CNS was greater than 100 µM throughout. The TGI in the test with NCI-H522 lung, with SN12C renal and with A549 NSCLC was greater than 100 µM throughout.
